From patent publication US11208387B2, “Macrocyclic broad spectrum antibiotics” (Genentech, Inc., priority 2019, dated 2021)
In brackets after ≈: the same amount, converted by molar mass. Where two headings read alike, the source gives them in different places.

Tests used:
Experiment in all cases: Serum MIC, broth micro-dilution
Type in all cases: cell-based
[1] = test system: Klebsiella pneumoniae ATCC 700603; details: Klebsiella pneumoniae, read-out: K pneumoniae 700603 Serum MIC
Protocol: (§1) In vitro antimicrobial activity of each compound was determined by measuring minimal inhibitor concentrations (MICs) using the broth micro-dilution technique as approved by the Clinical and Laboratory Standards Institute (CLSI) (Methods for Dilution Antimicrobial Susceptibility Tests for Bacteria that Grow Aerobically; Approved Standard—Eighth Edition. CLSI document M07-A8. Wayne, Pa.: Clinical and Laboratory Standards; 2009). Antibacterial activity was measure against Escherichia coli strain ATCC 25922 (E. coli), Klebsiella pneumoniae ATCC 700603 (K. pneumoniae), Acinetobacter baumannii ATCC 17978 (A. baumannii), and Pseudomonas aeruginosa PA01 (P. aeruginosa), each of which is representative of a clinically relevant Gram-negative species. Cells were inoculated onto plates of Mueller Hinton Agar and grown at 37° C. for 16-18 hours. Inocula suspensions were prepared by scraping cells into 1 mL of testing media (Mueller Hinton II cation adjusted Broth) and diluting to a final OD 600 nm of 0.01.
(§2) Test compounds were prepared in DMSO at a concentration of […]. The compounds were tested under several different dilution formats. In protocol 1, the compound stocks were diluted into testing media at a concentration of 64 μg/ml and serial 2-fold dilutions were made in the same media, in 96-well U bottom microtiter dishes, for a total of 10 compound concentrations. In protocol 2, the compound stocks were diluted into testing media at a concentration of 4 μg/mL and serial 2-fold dilutions were made in the same media, in 96-well U bottom microtiter dishes, for a total of 10 compound concentrations. In protocol 3, compound stocks were diluted into testing media at a concentration of 0.5 μg/mL, with serial 2-fold dilutions conducted as described above. In protocol 4, compound stocks were diluted into testing media at a concentration of 0.13 μg/mL, with serial 2-fold dilutions conducted as described above. Inocula suspensions were added to the 2-fold serial dilutions of test compounds to a final density of OD 600 nm of 0.0005 and incubated at 35° C. for 22 hours. […] To assess antimicrobial activity in the presence of plasma proteins, MICs were also determined in growth media supplemented with 50% serum. Bacterial inocula and test compound dilution plates were prepared using the same protocol as described above for the standard MICs assay, with the exception that a mixture of 50% v/v Mueller Hinton II cation adjusted Broth and 50% v/v mouse sterile filtered serum (Equitech-Bio) was used in place of 100% Mueller Hinton II cation adjusted Broth. The results are listed in Table 3 (MIC, IC50 values micromolar).

[2] = test system: Acinetobacter baumannii ATCC 17978; details: Acinetobacter baumannii
Protocol: as §1, §2

[3] = test system: Pseudomonas aeruginosa PA01; details: Pseudomonas aeruginosa, read-out: P. aeruginosa 01 Serum MIC
Protocol: as §1, §2

[4] = test system: Escherichia coli strain ATCC 25922; details: Escherichia coli, read-out: E. coli 25922 Serum MIC
Protocol: as §1, §2

[5] = ATCC700603, 50% v/v mouse serum in Mueller Hinton II cation adjusted Broth, 35° C., 22 hours, Table 4
[6] = ATCC17978, 50% v/v mouse serum in Mueller Hinton II cation adjusted Broth, 35° C., 22 hours, Table 4, read-out: A. baumanii 17978 Serum MIC
[7] = ATCC17978, 50% v/v mouse serum in Mueller Hinton II cation adjusted Broth, 35° C., 22 hours, Table 5, read-out: Acinetobacter baumanii 17978 Serum MIC
[8] = PA01, 50% v/v mouse serum in Mueller Hinton II cation adjusted Broth, 35° C., 22 hours, Table 4
[9] = ATCC25922, 50% v/v mouse serum in Mueller Hinton II cation adjusted Broth, 35° C., 22 hours, Table 4
[10] = ATCC17978, 22 h, read-out: A. baumanii 17978 Serum MIC
[11] = ATCC17978, 22 h, read-out: Acinetobacter baumanii 17978 Serum MIC

| Structure (SMILES) | MIC [1, 5] [µM] | MIC [2, 6] [µM] | MIC [2, 7] [µM] | MIC [3, 8] [µM] | MIC [4, 9] [µM] | MIC ([1]; ATCC700603, 22 h) [µM] | MIC [2, 10] [µM] | MIC [2, 11] [µM] | MIC ([3]; PA01, 22 h) [µM] | MIC ([4]; ATCC25922, 22 h) [µM] |
| --- | --- | --- | --- | --- | --- | --- | --- | --- | --- | --- |
| C[C@@H]1NC(=O)[C@@H](N(C)C(=O)[C@H](CNS(N)(=O)=O)NC(=O)c2cnn(-c3ccc(OCCC(C)(C)C)cc3)c(=O)c2)c2cc(OC[C@H](O)CN)c(O)c(c2)-c2cc(ccc2OC[C@H](O)CN)C[C@@H](C(=O)O)NC1=O [Example 4, (8S,11S,14S)-18-hydroxy-11-methyl-14-[methyl-[(2S)-2-[[1-[4-(3,3-dimethyl-butoxy)phenyl]-6-oxo-pyridazine-4-carbonyl]amino]-3-(sulfamoylamino)-propanoyl]amino]-10,13-dioxo-3,17-bis[(2R)-3-amino-2-hydroxy-propoxy]-9,12-diazatricyclo-[13.3.1.12,6]icosa-1(18),2(20),3,5,15(19), 16-hexaene-8-carboxylic acid] | 0.75 (≈ 0.779 µg/mL) | 24 (≈ 24.9 µg/mL) | 24 (≈ 24.9 µg/mL) | 12 (≈ 12.5 µg/mL) | 1 (≈ 1.04 µg/mL) |  |  |  |  |  |
| Cc1nc(-c2ccc(C3(C)CC3)cc2)ncc1C(=O)N[C@@H](CNS(N)(=O)=O)C(=O)N(C)[C@@H]1C(=O)N[C@@H](C)C(=O)N[C@H](C(=O)O)Cc2ccc(OC[C@H](O)CN)c(c2)-c2cc1cc(OC[C@H](O)CN)c2O [Example 5, (8S,11S,14S)-18-hydroxy-11-methyl-14-[methyl-[(2S)-2-[[4-methyl-2-[4-(1-methylcyclopropyl)-phenyl]pyrimidine-5-carbonyl]amino]-3-(sulfamoylamino)-propanoyl]amino]-10,13-dioxo-3,17-bis[(2R)-3-amino-2-hydroxy-propoxy]-9,12-diazatricyclo-[13.3.1.12,6]icosa-1(18),2(20),3,5,15(19), 16-hexaene-8-carboxylic acid] | 0.88 (≈ 0.872 µg/mL) | 12 (≈ 11.9 µg/mL) | 12 (≈ 11.9 µg/mL) | 20 (≈ 19.8 µg/mL) | 0.63 (≈ 0.624 µg/mL) |  |  |  |  |  |
| Cc1nc(-c2ccc(C3(C)CC3)cc2)nc(N)c1C(=O)N[C@@H](CNS(N)(=O)=O)C(=O)N(C)[C@@H]1C(=O)N[C@@H](C)C(=O)N[C@H](C(=O)O)Cc2ccc(OC[C@H](O)CN)c(c2)-c2cc1cc(OC[C@H](O)CN)c2O [Example 6, (8S,11S,14S)-18-hydroxy-11-methyl-14-[methyl-[(2S)-2-[[4-amino-6-methyl-2-[4-(1-methylcyclo-propyl)phenyl]-pyrimidine-5-carbonyl]amino]-3-(sulfamoylamino)-propanoyl]amino]-10,13-dioxo-3,17-bis[(2R)-3-amino-2-hydroxy-propoxy]-9,12-diazatricyclo-[13.3.1.12,6]icosa-1(18),2(20),3,5,15(19), 16-hexaene-8-carboxylic acid] | 0.75 (≈ 0.755 µg/mL) | 16 (≈ 16.1 µg/mL) | 16 (≈ 16.1 µg/mL) | 16 (≈ 16.1 µg/mL) | 0.75 (≈ 0.755 µg/mL) |  |  |  |  |  |
| C[C@@H]1NC(=O)[C@@H](N(C)C(=O)[C@H](CNS(N)(=O)=O)NC(=O)c2ncc(-c3ccc(C(C)(C)C)cc3)nc2N)c2cc(OC[C@H](O)CN)c(O)c(c2)-c2cc(ccc2OC[C@H](O)CN)C[C@@H](C(=O)O)NC1=O [Example 11, (8S,11S,14S)-18-hydroxy-11-methyl-14-[methyl-[(2S)-2-[[3-amino-5-(4-tert-butylphenyl)pyrazine-2-carbonyl]amino]-3-(sulfamoylamino)-propanoyl]amino]-10,13-dioxo-3,17-bis[(2R)-3-amino-2-hydroxy-propoxy]-9,12-diazatricyclo-[13.3.1.12,6]icosa-1(18),2(20),3,5,15(19), 16-hexaene-8-carboxylic acid] |  |  |  |  |  | 4 (≈ 3.98 µg/mL) | 16 (≈ 15.9 µg/mL) | 16 (≈ 15.9 µg/mL) | 64 (≈ 63.6 µg/mL) | 4 (≈ 3.98 µg/mL) |
| Cc1nc(N2CCC(C(C)(C)C)CC2)nc(N)c1C(=O)N[C@@H](CNS(N)(=O)=O)C(=O)N(C)[C@@H]1C(=O)N[C@@H](C)C(=O)N[C@H](C(=O)O)Cc2ccc(OC[C@H](O)CN)c(c2)-c2cc1cc(OC[C@H](O)CN)c2O [Example 12, (8S,11S,14S)-18-hydroxy-11-methyl-14-[methyl-[(2S)-2-[[4-amino-2-(4-tert-butyl-1-piperidyl)-6-methyl-pyrimidine-5-carbonyl]amino]-3-(sulfamoylamino)-propanoyl]amino]-10,13-dioxo-3,17-bis[(2R)-3-amino-2-hydroxy-propoxy]-9,12-diazatricyclo-[13.3.1.12,6]icosa-1(18),2(20),3,5,15(19), 16-hexaene-8-carboxylic acid] | 3 (≈ 3.05 µg/mL) | 16 (≈ 16.2 µg/mL) | 16 (≈ 16.2 µg/mL) | 16 (≈ 16.2 µg/mL) | 2 (≈ 2.03 µg/mL) |  |  |  |  |  |
| Cc1nc(-c2ccc(OC(C)C)cc2)nc(C)c1C(=O)N[C@@H](CNS(N)(=O)=O)C(=O)N(C)[C@@H]1C(=O)N[C@@H](C)C(=O)N[C@H](C(=O)O)Cc2ccc(OC[C@H](O)CN)c(c2)-c2cc1cc(OC[C@H](O)CN)c2O [Example 13, (8S,11S,14S)-18-hydroxy-11-methyl-14-[methyl-[(2S)-2-[[2-(4-isopropoxy-phenyl)-4,6-dimethyl-pyrimidine-5-carbonyl]amino]-3-(sulfamoylamino)-propanoyl]amino]-10,13-dioxo-3,17-bis[(2R)-3-amino-2-hydroxy-propoxy]-9,12-diazatricyclo-[13.3.1.12,6]icosa-1(18),2(20),3,5,15(19), 16-hexaene-8-carboxylic acid] |  |  |  |  |  | 1.5 (≈ 1.51 µg/mL) | 32 (≈ 32.3 µg/mL) | 32 (≈ 32.3 µg/mL) | 24 (≈ 24.2 µg/mL) | 1.5 (≈ 1.51 µg/mL) |

The next lines start with results.

| MIC [1, 5] [µM] | MIC [2, 6] [µM] | MIC [2, 7] [µM] | MIC [3, 8] [µM] | MIC [4, 9] [µM] | Structure (SMILES) | MIC ([1]; ATCC700603, 22 h) [µM] | MIC [2, 10] [µM] | MIC [2, 11] [µM] | MIC ([3]; PA01, 22 h) [µM] | MIC ([4]; ATCC25922, 22 h) [µM] |
| --- | --- | --- | --- | --- | --- | --- | --- | --- | --- | --- |
| 1.5 (≈ 1.56 µg/mL) | 32 (≈ 33.2 µg/mL) | 32 (≈ 33.2 µg/mL) | 32 (≈ 33.2 µg/mL) | 6 (≈ 6.22 µg/mL) | C[C@@H]1NC(=O)[C@@H](N(C)C(=O)[C@H](CNS(N)(=O)=O)NC(=O)c2cnn(-c3ccc(OC4CCCCC4)cc3)c(=O)c2)c2cc(OC[C@H](O)CN)c(O)c(c2)-c2cc(ccc2OC[C@H](O)CN)C[C@@H](C(=O)O)NC1=O [Example 9, (8S,11S,14S)-18-hydroxy-11-methyl-14-[methyl-[(2S)-2-[[1-[4-(cyclohexoxy)-phenyl]-6-oxo-pyridazine-4-carbonyl]amino]-3-(sulfamoylamino)-propanoyl]amino]-10,13-dioxo-3,17-bis[(2R)-3-amino-2-hydroxy-propoxy]-9,12-diazatricyclo-[13.3.1.12,6]icosa-1(18),2(20),3,5,15(19), 16-hexaene-8-carboxylic acid] |  |  |  |  |  |
| 1 (≈ 1.03 µg/mL) | 32 (≈ 32.9 µg/mL) | 32 (≈ 32.9 µg/mL) | 32 (≈ 32.9 µg/mL) | 0.5 (≈ 0.515 µg/mL) | Cc1nc(-c2ccc(C(F)(F)C(C)C)cc2)ncc1C(=O)N[C@@H](CNS(N)(=O)=O)C(=O)N(C)[C@@H]1C(=O)N[C@@H](C)C(=O)N[C@H](C(=O)O)Cc2ccc(OC[C@H](O)CN)c(c2)-c2cc1cc(OC[C@H](O)CN)c2O [Example 10, (8S,11S,14S)-18-hydroxy-11-methyl-14-[methyl-[(2S)-2-[[2-[4-(1,1-difluoro-2-methyl-propyl)-phenyl]-4-methyl-pyrimidine-5-carbonyl]amino]-3-(sulfamoylamino)-propanoyl]amino]-10,13-dioxo-3,17-bis[(2R)-3-amino-2-hydroxy-propoxy]-9,12-diazatricyclo-[13.3.1.12,6]icosa-1(18),2(20),3,5,13(19), 16-hexaene-8-carboxylic acid] |  |  |  |  |  |
